Measurements: patent US20250179059A1 (The Regents of the University of California, priority 2021, published 2025)

What was measured:
[1] = system: human SKM-1 acute myeloid leukemia cells; experiment: SKM-1 antiproliferation cell-based assay (ATPlite); settings: Homo sapiens, SKM-1, 96 h, SKM-1 antiproliferation assay, 4 days, Table C2
In short: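 Log-phase cells in RPMI 1640/15% FBS were seeded at 34722 cells/mL and exposed for 4 days to nine-concentration DMSO serial dilutions in triplicate. Viability was read as ATP luminescence (ATPlite 1step), and IC50 values came from variable-slope non-linear regression.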

[2] = target: T1, human BRD4 bromodomain II (Homo sapiens, UniProt O60885); experiment: Bromodomain binding assay (AlphaScreen), BRD4 BDII; settings: AlphaScreen assay, Table C2; read-out: BRD4 BDII IC50
T1 construct: human BRD4 bromodomain II [based on Genbank NM_058243, residues 349-460]; host or cells: E. coli
In short: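 Inhibition of acetyl-H4 peptide binding to human BRD4 bromodomains is measured by bead-based proximity (AlphaScreen) in pH 7.5 HEPES buffer containing 0.05% CHAPS and 0.1% BSA. Ten compound concentrations in 3-fold steps give competitive binding IC50s.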

| Structure (SMILES) | GI50 [1] [nM] | IC50 [2] [nM] |
| --- | --- | --- |
| CC(C)[C@@H]1CN(c2cc(-c3cc(F)cc(-c4ccc(-n5ccn(C)c5=O)c(Cl)c4)c3O)cc3[nH]ncc23)CCN1 [Example 597, (R)-1-(3-chloro-5′-fluoro-2′-hydroxy-3′-(4-(3-isopropylpiperazin-1-yl)-1H-indazol-6-yl)-[1,1′-biphenyl]-4-yl)-3-methyl-1H-imidazol-2(3H)-one] | 0.3 to 30 | 1 to 10 |
| Cn1ccn(-c2ccc(-c3cc(F)cc(-c4cc(N5C[C@@H](N)C6(CC6)C5)c5cn[nH]c5c4)c3O)cc2Cl)c1=O [Example 598, (S)-1-(3′-(4-(7-amino-5-azaspiro[2.4]heptan-5-yl)-1H-indazol-6-yl)-3-chloro-5′-fluoro-2′-hydroxy-[1,1′-biphenyl]-4-yl)-3-methyl-1H-imidazol-2(3H)-one] | 0.3 to 30 | 1 to 10 |
| Cn1ccn(-c2ccc(-c3cc(F)cc(-c4cc(N5CC6CC5CN6)c5cn[nH]c5c4)c3O)cc2Cl)c1=O (stereo not drawn) [Example 599, 1-(3′-(4-(2,5-diazabicyclo[2.2.1]heptan-2-yl)-1H-indazol-6-yl)-3-chloro-5′-fluoro-2′-hydroxy-[1,1′-biphenyl]-4-yl)-3-methyl-1H-imidazol-2(3H)-one] | 30 to 300 | 1 to 10 |
| Cn1ccn(-c2ccc(-c3cc(F)cc(-c4cc(N5CC6CCC5CN6)c5cn[nH]c5c4)c3O)cc2Cl)c1=O (stereo not drawn) [Example 600, 1-(3′-(4-(2,5-diazabicyclo[2.2.2]octan-2-yl)-1H-indazol-6-yl)-3-chloro-5′-fluoro-2′-hydroxy-[1,1′-biphenyl]-4-yl)-3-methyl-1H-imidazol-2(3H)-one] | 0.3 to 30 | 1 to 10 |
| Cn1ccn(-c2ccc(-c3cc(F)cc(-c4cc(N5CCN6CCCCC6C5)c5cn[nH]c5c4)c3O)cc2Cl)c1=O (stereo not drawn) [Example 601, 1-(3-chloro-5′-fluoro-3′-(4-(hexahydro-1H-pyrido[1,2-a]pyrazin-2(6H)-yl)-1H-indazol-6-yl)-2′-hydroxy-[1,1′-biphenyl]-4-yl)-3-methyl-1H-imidazol-2(3H)-one] | 0.3 to 30 | 0.01 to 1 |
| C[C@@H]1CN(c2cc(-c3cc(F)cc(-c4ccc(-n5ccn(C)c5=O)c(Cl)c4)c3O)cn3ncnc23)CCN1 [Example 602, (R)-1-(3-chloro-5′-fluoro-2′-hydroxy-3′-(8-(3-methylpiperazin-1-yl)-[1,2,4]triazolo[1,5-a]pyridin-6-yl)-[1,1′-biphenyl]-4-yl)-3-methyl-1H-imidazol-2(3H)-one] | 0.3 to 30 | 0.01 to 1 |
| C[C@@H]1CN(c2cc(-c3cc(F)cc(-c4ccc(-n5ccn(C)c5=O)c(Cl)c4)c3O)cc3[nH]c(=O)[nH]c23)CCN1 [Example 603, (R)-6-(3′-chloro-5-fluoro-2-hydroxy-4′-(3-methyl-2-oxo-2,3-dihydro-1H-imidazol-1-yl)-[1,1′-biphenyl]-3-yl)-4-(3-methylpiperazin-1-yl)-1H-benzo[d]imidazol-2(3H)-one] | 30 to 300 | 0.01 to 1 |
| CN1CCN(c2cc(-c3cc(F)cc(-c4ccc(-n5ccn(C)c5=O)c(Cl)c4)c3O)cc3c2cnn3C)CC1 [Example 604, 1-(3-chloro-5′-fluoro-2′-hydroxy-3′-(1-methyl-4-(4-methylpiperazin-1-yl)-1H-indazol-6-yl)-[1,1′-biphenyl]-4-yl)-3-methyl-1H-imidazol-2(3H)-one] | 0.3 to 30 | 0.01 to 1 |
| C[C@@H]1CN(c2cc(-c3cc(F)cc(-c4ccc(-n5ccn(C)c5=O)c(Cl)c4)c3O)cc3c2nnn3C)CCN1 [Example 605, (R)-1-(3-chloro-5′-fluoro-2′-hydroxy-3′-(1-methyl-4-(3-methylpiperazin-1-yl)-1H-benzo[d][1,2,3]triazol-6-yl)-[1,1′-biphenyl]-4-yl)-3-methyl-1H-imidazol-2(3H)-one] | 0.3 to 30 | 0.01 to 1 |
| Cn1ccn(-c2ccc(-c3cc(F)cc(-c4cc(N5CCN6CCCC6C5)c5cn[nH]c5c4)c3O)cc2Cl)c1=O (stereo not drawn) [Example 606, 1-(3-chloro-5′-fluoro-3′-(4-(hexahydropyrrolo[1,2-a]pyrazin-2(1H)-yl)-1H-indazol-6-yl)-2′-hydroxy-[1,1′-biphenyl]-4-yl)-3-methyl-1H-imidazol-2(3H)-one] | 0.3 to 30 | 0.01 to 1 |
| Cn1ccn(-c2ccc(-c3cc(F)cc(-c4cc(N5CC6CCC(C5)N6)c5cnn(C)c5c4)c3O)cc2Cl)c1=O [Example 607, 1-(3′-(4-(3,8-diazabicyclo[3.2.1]octan-3-yl)-1-methyl-1H-indazol-6-yl)-3-chloro-5′-fluoro-2′-hydroxy-[1,1′-biphenyl]-4-yl)-3-methyl-1H-imidazol-2(3H)-one] | 0.3 to 30 | 0.01 to 1 |
| Cc1ccc(S(=O)(=O)n2ccc3c(N4CCN[C@H](C)C4)cc(-c4cc(F)cc(-c5ccc(-n6ccn(C)c6=O)c(Cl)c5)c4O)cc32)cc1 [Example 608, (R)-1-(3-chloro-5′-fluoro-2′-hydroxy-3′-(4-(3-methylpiperazin-1-yl)-1-tosyl-1H-indol-6-yl)-[1,1′-biphenyl]-4-yl)-3-methyl-1H-imidazol-2(3H)-one] | 30 to 300 | 10 to 100 |
| Cn1ccn(-c2ccc(-c3cc(F)cc(-c4cc(N5CCN6CCCCC6C5)c5cnn(C)c5c4)c3O)cc2Cl)c1=O (stereo not drawn) [Example 609, 1-(3-chloro-5′-fluoro-3′-(4-(hexahydro-1H-pyrido[1,2-a]pyrazin-2(6H)-yl)-1-methyl-1H-indazol-6-yl)-2′-hydroxy-[1,1′-biphenyl]-4-yl)-3-methyl-1H-imidazol-2(3H)-one] | 0.3 to 30 | 0.01 to 1 |
| Cn1ccn(-c2ccc(-c3cc(F)cc(-c4ccnc(N5CCN(C[C@@H](O)CO)CC5)c4)c3O)cc2Cl)c1=O [Example 610, (R)-1-(3-chloro-3′-(2-(4-(2,3-dihydroxypropyl)piperazin-1-yl)pyridin-4-yl)-5′-fluoro-2′-hydroxy-[1,1′-biphenyl]-4-yl)-3-methyl-1H-imidazol-2(3H)-one] | 0.3 to 30 | 0.01 to 1 |

The remaining lines, values ahead:

| GI50 [1] [nM] | IC50 [2] [nM] | Structure (SMILES) |
| --- | --- | --- |
| 0.3 to 30 | 0.01 to 1 | Cn1ccn(-c2ccc(-c3cc(F)cc(-c4ccnc(N5CCN(CC6COC6)CC5)c4)c3O)cc2Cl)c1=O [Example 611, 1-(3-chloro-5′-fluoro-2′-hydroxy-3′-(2-(4-(oxetan-3-ylmethyl)piperazin-1-yl)pyridin-4-yl)-[1,1′-biphenyl]-4-yl)-3-methyl-1H-imidazol-2(3H)-one] |
| 300 to 3000 | 1 to 10 | Cn1ccn(-c2ccc(-c3cc(F)cc(-c4ccnc(N5CCCCC5)c4)c3O)cc2Cl)c1=O [Example 612, 1-(3-chloro-5′-fluoro-2′-hydroxy-3′-(2-(piperidin-1-yl)pyridin-4-yl)-[1,1′-biphenyl]-4-yl)-3-methyl-1H-imidazol-2(3H)-one] |
| 30 to 300 | 1 to 10 | Cn1ccn(-c2ccc(-c3cc(F)cc(-c4ccnc(N5CCCC5)c4)c3O)cc2Cl)c1=O [Example 613, 1-(3-chloro-5′-fluoro-2′-hydroxy-3′-(2-(pyrrolidin-1-yl)pyridin-4-yl)-[1,1′-biphenyl]-4-yl)-3-methyl-1H-imidazol-2(3H)-one] |
| 0.3 to 30 | 0.01 to 1 | Cn1ccn(-c2ccc(-c3cc(F)cc(-c4ccnc(N5CCN(C(C)(C)C)CC5)c4)c3O)cc2Cl)c1=O [Example 614, 1-(3′-(2-(4-(tert-butyl)piperazin-1-yl)pyridin-4-yl)-3-chloro-5′-fluoro-2′-hydroxy-[1,1′-biphenyl]-4-yl)-3-methyl-1H-imidazol-2(3H)-one] |
| 30 to 300 | 1 to 10 | Cn1ccn(-c2ccc(-c3cc(F)cc(-c4ccnc(N5CCOCC5)c4)c3O)cc2Cl)c1=O [Example 615, 1-(3-chloro-5′-fluoro-2′-hydroxy-3′-(2-morpholinopyridin-4-yl)-[1,1′-biphenyl]-4-yl)-3-methyl-1H-imidazol-2(3H)-one] |
| 0.3 to 30 | 0.01 to 1 | Cn1ccn(-c2ccc(-c3cc(F)cc(-c4ccnc(N5CCN(CCN)CC5)c4)c3O)cc2Cl)c1=O [Example 616, 1-(3′-(2-(4-(2-aminoethyl)piperazin-1-yl)pyridin-4-yl)-3-chloro-5′-fluoro-2′-hydroxy-[1,1′-biphenyl]-4-yl)-3-methyl-1H-imidazol-2(3H)-one] |
| 0.3 to 30 | 0.01 to 1 | Cn1ccn(-c2ccc(-c3cc(F)cc(-c4ccnc(N5CCN(CCCO)CC5)c4)c3O)cc2Cl)c1=O [Example 617, 1-(3-chloro-5′-fluoro-2′-hydroxy-3′-(2-(4-(3-hydroxypropyl)piperazin-1-yl)pyridin-4-yl)-[1,1′-biphenyl]-4-yl)-3-methyl-1H-imrdazol-2(3H)-one] |
| 30 to 300 | 0.01 to 1 | Cn1ccn(-c2ccc(-c3cc(F)cc(-c4ccnc(N5CCN(C6CCOC6)CC5)c4)c3O)cc2Cl)c1=O (stereo not drawn) [Example 618, 1-(3-chloro-5′-fluoro-2′-hydroxy-3′-(2-(4-(tetrahydrofuran-3-yl)piperazin-1-yl)pyridin-4-yl)-[1,1′-biphenyl]-4-yl)-3-methyl-1H-imidazol-2(3H)-one] |
| 0.3 to 30 | 0.01 to 1 | Cn1ccn(-c2ccc(-c3cc(F)cc(-c4ccnc(N5CCN(C6CCC6)CC5)c4)c3O)cc2Cl)c1=O [Example 619, 1-(3-chloro-3′-(2-(4-cyclobutylpiperazin-l-yl)pyridin-4-yl)-5′-fluoro-2′-hydroxy-[1,1′-biphenyl]-4-yl)-3-methyl-1H-imidazol-2(3H)-one] |
| 30 to 300 | 0.01 to 1 | Cn1ccn(-c2ccc(-c3cc(F)cc(-c4ccnc(N5CCN(CCCN)CC5)c4)c3O)cc2Cl)c1=O [Example 620, 1-(3′-(2-(4-(3-aminopropyl)piperazin-1-yl)pyridin-4-yl)-3-chloro-5′-fluoro-2′-hydroxy-[1,1′-biphenyl]-4-yl)-3-methyl-1H-imidazol-2(3H)-one] |
